These results are taken from patent US8143393B2, “Substituted 4-amino-pyrrolotriazine derivatives useful for treating hyper-proliferative disorders and diseases associated with angiogenesis” (Bayer HealthCare LLC, priority 2005, dated 2012).

Usually IC50 stands for the point on the concentration scale where inhibition reaches its midpoint. Read a high IC50 as weaker potency.

Each structure is given as a SMILES string. Some results are limits rather than exact numbers.

In the first experiment the target is T1, FGFR-1 (Homo sapiens, UniProt P11362).
T1 construct: GST; made in house
T1 sequence (P11362 22-822): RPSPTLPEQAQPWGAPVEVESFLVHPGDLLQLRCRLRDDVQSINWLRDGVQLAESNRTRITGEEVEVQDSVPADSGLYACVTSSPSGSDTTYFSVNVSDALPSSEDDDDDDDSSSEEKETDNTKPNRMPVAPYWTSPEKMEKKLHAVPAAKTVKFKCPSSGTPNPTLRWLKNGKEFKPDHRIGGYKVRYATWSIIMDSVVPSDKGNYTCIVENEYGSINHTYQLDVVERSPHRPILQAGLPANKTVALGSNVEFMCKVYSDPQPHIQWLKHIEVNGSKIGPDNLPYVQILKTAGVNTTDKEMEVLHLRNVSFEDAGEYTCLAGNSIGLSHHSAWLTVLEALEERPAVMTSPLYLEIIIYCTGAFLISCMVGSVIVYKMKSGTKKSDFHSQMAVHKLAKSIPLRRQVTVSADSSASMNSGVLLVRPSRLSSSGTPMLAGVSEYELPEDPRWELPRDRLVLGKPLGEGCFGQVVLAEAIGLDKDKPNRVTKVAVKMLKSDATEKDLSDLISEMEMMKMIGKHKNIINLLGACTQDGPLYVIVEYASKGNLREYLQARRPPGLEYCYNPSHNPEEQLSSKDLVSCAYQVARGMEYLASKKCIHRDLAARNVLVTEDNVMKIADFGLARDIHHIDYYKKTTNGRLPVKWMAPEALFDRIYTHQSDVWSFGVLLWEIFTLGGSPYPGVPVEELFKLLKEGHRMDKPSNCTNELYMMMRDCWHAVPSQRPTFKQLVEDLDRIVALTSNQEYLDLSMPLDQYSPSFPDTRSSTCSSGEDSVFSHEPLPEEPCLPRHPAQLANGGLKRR
As to the kind of experiment: FGFR-1 TR-FRET biochemical assay. The settings on record: 0.6 uM ATP, 5 nM FGFR1-GST; bounds given in nM. The protocol: FGFR-1TR-FRET Biochemical Assay
The FGFR-1 Assay was performed on half well 96-well opaque plates (Costar 3915) in a LANCE format. LANCE is a homogenous time resolved fluormetry based application available through Perkin Elmer. For this assay, 50 uL reactions were set up using: 0.6 uM ATP (Sigma), 25 nM poly GT-biotin (CIS BIO International), 2 nM Eu-labelled phospho-Tyr Ab (PY20 PerkinElmer), 10 nM Streptavidin-APC (Perkin Elmer), 5 nM FGFR1-GST (generated by DRT, Bayer Healthcare), 1% DMSO, 50 mM HEPES pH 7.5, 10 mM MgCl2, 0.1 mM EDTA, 0.015% Brij, 0.1 mg/ml BSA, 0.1% B-mercaptoethanol. All reactions were initiated with the addition of enzyme and were left to incubate for one hour at room temperature. Time-resolved fluorescence was then read on a Perkin Elmer VictorV Multilabel counter. The reading protocol uses an excitation wavelength at 340 nm and emission reads at both 615 and 665 nm. Signal was calculated as a ratio: (Flourescence at 665 nm/Flourescence at 615 nM)*10000 for each well. The background control used for this assay is the signal produced with all assay components excluding ATP. For IC50 generation, compounds were added prior to the enzyme initiation. A 50-fold stock plate was made with compounds serially diluted 1:5 in a 50% DMSO/50% dH2O solution. A 1 μL addition of the stock to the assay wells gave final compound concentrations ranging from 10 μM-0.128 nM in 1% DMSO. The data were expressed as percent inhibition: % inhibition=100−((Signal with inhibitor−background)/(Signal without inhibitor−background))*100.
In general terms: Time-resolved FRET reads energy transfer from a long-lived donor to a nearby acceptor.
`CC(C)(C)c1cc(NC(=O)Nc2ccc(-c3cc(CN4CCOCC4)n4ncnc(N)c34)cc2)on1` [Example 2, N-{4-[4-amino-7-(morpholin-4-ylmethyl)pyrrolo[2,1-f][1,2,4]triazin-5-yl]phenyl}-N′-(3-tert-butylisoxazol-5-yl)urea] had an IC50 of less than 10 nM.

For `Nc1ncnn2c(CN3CCOCC3)cc(-c3cc(F)c(NC(=O)Nc4cc(C(F)(F)F)ccc4F)c(F)c3)c12` [Example 7, N-{4-[4-amino-7-(morpholin-4-ylmethyl)-pyrrolo[2,1-f][1,2,4]triazin-5-yl]-2,6-difluorophenyl}-N′-[Z-fluoro-5-(trifluoro-methyl)phenyl]urea], the IC50 is greater than 100 nM.

For the compound `Nc1ncnn2c(CN3CCOCC3)cc(-c3ccc(NC(=O)Nc4cc(C(F)(F)F)ccc4F)nc3)c12` [Example 9, N-{5-[4-amino-7-(morpholin-4-ylmethyl)pyrrolo[2,1-f][1,2,4]triazin-5-yl]pyridin-2-yl}-N′-[2-fluoro-5-(trifluoromethyl)phenyl]urea], the IC50 is less than 10 nM.

Regarding `Nc1ncnn2c(CN3CCOCC3)cc(-c3ccc(NC(=O)Nc4cc(C(F)(F)F)ccn4)cc3F)c12` [Example 11, N-{4-[4-amino-7-(morpholin-4-ylmethyl)pyrrolo[2,1-f][1,2,4]triazin-5-yl]-3-fluorophenyl}-N′-[4-(trifluoromethyl)pyridin-2-yl]urea], the IC50 is less than 10 nM.

`Nc1ncnn2c(CN3CCOCC3)cc(-c3ccc(NC(=O)Nc4cc(C(F)(F)F)ccn4)nc3)c12` [Example 12, N-{5-[4-amino-7-(morpholin-4-ylmethyl)pyrrolo[2,1-f][1,2,4]triazin-5-yl]pyridin-2-yl}-N′-[4-(trifluoromethyl)pyridin-2-yl]urea] had an IC50 of less than 10 nM.

`Nc1ncnn2c(CN3CCOCC3)cc(-c3cc(F)c(NC(=O)Nc4cc(C(F)(F)F)ccn4)c(F)c3)c12` [Example 14, N-{4-[4-amino-7-(morpholin-4-ylmethyl)pyrrolo[2,1-f][1,2,4]triazin-5-yl]-2,6-difluorophenyl}-N′-[4-(trifluoromethyl)pyridin-2-yl]urea] showed an IC50 greater than 100 nM.

In turn, `Nc1ncnn2c(CN3CCOCC3)cc(-c3ccc(NC(=O)Nc4ccc(F)c(C(F)(F)F)c4)nc3)c12` [Example 18, N-{5-[4-amino-7-(morpholin-4-ylmethyl)pyrrolo[2,1-f][1,2,4]triazin-5-yl]pyridin-2-yl}-N′-[4-fluoro-3-(trifluoromethyl)phenyl]urea] displayed an IC50 of less than 10 nM.

Take `Nc1ncnn2c(CN3CCOCC3)cc(-c3ccc(NC(=O)Nc4ccc(Cl)c(C(F)(F)F)c4)nc3)c12` [Example 19, N-{5-[4-amino-7-(morpholin-4-ylmethyl)pyrrolo[2,1-f][1,2,4]triazin-5-yl]pyridin-2-yl}-N′-[4-chloro-3-(trifluoromethyl)phenyl]urea]: the IC50 is less than 10 nM.

Regarding `Nc1ncnn2c(CN3CCOCC3)cc(-c3ccc(NC(=O)Nc4cccc(C(F)(F)F)c4)nc3)c12` [Example 20, N-{5-[4-amino-7-(morpholin-4-ylmethyl)pyrrolo[2,1-f][1,2,4]triazin-5-yl]pyridin-2-yl}-N′-[3-(trifluoromethyl)phenyl]urea], the IC50 was less than 10 nM.

Turning to `Nc1ncnn2c(CN3CCOCC3)cc(-c3ccc(NC(=O)Nc4cccc(C(F)(F)F)c4F)nc3)c12` [Example 21, N-{5-[4-amino-7-(morpholin-4-ylmethyl)pyrrolo[2,1-f][1,2,4]triazin-5-yl]pyridin-2-yl}-N′-[2-fluoro-3-(trifluoromethyl)phenyl]urea], the IC50 was 10 to 100 nM.

Compound `Nc1ncnn2c(CN3CCOCC3)cc(-c3ccc(NC(=O)Nc4cc(F)cc(C(F)(F)F)c4)nc3)c12` [Example 22, N-{5-[4-amino-7-(morpholin-4-ylmethyl)pyrrolo[2,1-f][1,2,4]triazin-5-yl]pyridin-2-yl}-N′-[3-fluoro-5-(trifluoromethyl)phenyl]urea] yielded an IC50 of less than 10 nM.

In the case of `Cc1cc(-c2cc(CN3CCOCC3)n3ncnc(N)c23)ccc1NC(=O)Nc1cc(C(F)(F)F)ccn1` [Example 26, N-{4-[4-amino-7-(morpholin-4-ylmethyl)pyrrolo[2,1-f][1,2,4]triazin-5-yl]-2-methylphenyl}-N′-[4-(trifluoromethyl)pyridin-2-yl]urea], the IC50 is less than 10 nM.

On to `Cc1cc(-c2cc(CN3CCOCC3)n3ncnc(N)c23)ccc1NC(=O)Nc1ccc(F)c(C(F)(F)F)c1` [Example 27, N-{4-[4-amino-7-(morpholin-4-ylmethyl)pyrrolo[2,1-f][1,2,4]triazin-5-yl]-2-methylphenyl}-N′-[4-fluoro-3-(trifluoromethyl)phenyl]urea], for which the IC50 was less than 10 nM.

In the case of `Cc1cc(-c2cc(CN3CCOCC3)n3ncnc(N)c23)ccc1NC(=O)Nc1cc(F)cc(C(F)(F)F)c1` [Example 28, N-{4-[4-amino-7-(morpholin-4-ylmethyl)pyrrolo[2,1-f][1,2,4]triazin-5-yl]-2-methylphenyl}-N′-[3-fluoro-5-(trifluoromethyl)phenyl]urea], the IC50 is less than 10 nM.

`Cc1cc(NC(=O)Nc2cc(C(F)(F)F)ccc2F)ccc1-c1cc(CN2CCOCC2)n2ncnc(N)c12` [Example 29, N-{4-[4-amino-7-(morpholin-4-ylmethyl)pyrrolo[2,1-f][1,2,4]triazin-5-yl]-3-methylphenyl}-N′-[2-fluoro-5-(trifluoromethyl)phenyl]urea]: the IC50 was less than 10 nM.

With `COc1cc(-c2cc(CN3CCOCC3)n3ncnc(N)c23)ccc1NC(=O)Nc1cc(C(C)(C)C)no1` [Example 30, N-{4-[4-amino-7-(morpholin-4-ylmethyl)pyrrolo[2,1-f][1,2,4]triazin-5-yl]-2-methoxyphenyl}-N′-(3-tert-butylisoxazol-5-yl)urea], the IC50 was 10 to 100 nM.

For `COc1cc(-c2cc(CN3CCOCC3)n3ncnc(N)c23)ccc1NC(=O)Nc1cc(C(F)(F)F)ccn1` [Example 31, N-{4-[4-amino-7-(morpholin-4-ylmethyl)pyrrolo[2,1-f][1,2,4]triazin-5-yl]-2-methoxyphenyl}-N′-[4-(trifluoromethyl)pyridin-2-yl]urea], the concentration for half-maximal inhibition (IC50) is 10 to 100 nM.

Compound `COc1cc(-c2cc(CN3CCOCC3)n3ncnc(N)c23)ccc1NC(=O)Nc1ccc(F)c(C(F)(F)F)c1` [Example 32, N-{4-[4-amino-7-(morpholin-4-ylmethyl)pyrrolo[2,1-f][1,2,4]triazin-5-yl]-2-methoxyphenyl}-N′-[4-fluoro-3-(trifluoromethyl)phenyl]urea] gave an IC50 of 10 to 100 nM.

`COc1cc(-c2cc(CN3CCOCC3)n3ncnc(N)c23)ccc1NC(=O)Nc1cccc(OC(F)(F)F)c1` [Example 33, N-{4-[4-amino-7-(morpholin-4-ylmethyl)pyrrolo[2,1-f][1,2,4]triazin-5-yl]-2-methoxyphenyl}-N′-[3-(trifluoromethoxy)phenyl]urea]: the IC50 fell in the range of 10 to 100 nM.

For `COc1cc(-c2cc(CN3CCOCC3)n3ncnc(N)c23)ccc1NC(=O)Nc1cc(C(F)(F)F)ccc1Cl` [Example 35, N-{4-[4-amino-7-(morpholin-4-ylmethyl)pyrrolo[2,1-f][1,2,4]triazin-5-yl]-2-methoxyphenyl}-N′-[2-chloro-5-(trifluoromethyl)phenyl]urea], the IC50 is 10 to 100 nM.

As for `COc1cc(-c2cc(CN3CCOCC3)n3ncnc(N)c23)ccc1NC(=O)Nc1cc(C(F)(F)F)ccc1F` [Example 36, N-{4-[4-amino-7-(morpholin-4-ylmethyl)pyrrolo[2,1-f][1,2,4]triazin-5-yl]-2-methoxyphenyl}-N′-[2-fluoro-5-(trifluoromethyl)phenyl]urea], the IC50 lay within 10 to 100 nM.

On to `COc1cc(NC(=O)Nc2cc(C(F)(F)F)ccc2F)ccc1-c1cc(CN2CCOCC2)n2ncnc(N)c12` [Example 37, N-{4-[4-amino-7-(morpholin-4-ylmethyl)pyrrolo[2,1-f][1,2,4]-triazin-5-yl]-3-methoxyphenyl}-N′-[2-fluoro-5-(trifluoromethyl)phenyl]urea], for which the IC50 lay within 10 to 100 nM.

Regarding `COc1cc(NC(=O)Nc2cc(C(F)(F)F)ccn2)ccc1-c1cc(CN2CCOCC2)n2ncnc(N)c12` [Example 38, N-{4-[4-amino-7-(morpholin-4-ylmethyl)pyrrolo[2,1-f][1,2,4]triazin-5-yl]-3-methoxyphenyl}-N′-[4-(trifluoromethyl)pyridin-2-yl]urea], the IC50 was in the range of 10 to 100 nM.

Turning to `Nc1ncnn2c(CN3CCNC(=O)C3)cc(-c3ccc(NC(=O)Nc4cc(C(F)(F)F)ccc4F)cc3)c12` [Example 39, N-(4-{4-amino-7-[(3-oxopiperazin-1-yl)methyl]pyrrolo[2,1-f][1,2,4]triazin-5-yl}phenyl)-N′-[2-fluoro-5-(trifluoromethyl)phenyl]urea], the IC50 was less than 10 nM.

The compound `Nc1ncnn2c(CN3CCNC(=O)C3)cc(-c3ccc(NC(=O)Nc4cc(C(F)(F)F)ccc4F)c(F)c3)c12` [Example 40, N-(4-{4-amino-7-[(3-oxopiperazin-1-yl)methyl]pyrrolo[2,1-f][1,2,4]triazin-5-yl}-2-fluorophenyl)-N′-[2-fluoro-5-(trifluoromethyl)phenyl]urea] registered an IC50 of less than 10 nM.

Staying with this experiment, now noted: upper bound of the bin 'greater than 100 nM but less than 1 μM' (lower bound in E1).
`Nc1ncnn2c(CN3CCOCC3)cc(-c3cc(F)c(NC(=O)Nc4cc(C(F)(F)F)ccc4F)c(F)c3)c12` [Example 7, N-{4-[4-amino-7-(morpholin-4-ylmethyl)-pyrrolo[2,1-f][1,2,4]triazin-5-yl]-2,6-difluorophenyl}-N′-[Z-fluoro-5-(trifluoro-methyl)phenyl]urea] came in with an IC50 of less than 1000 nM.

Compound `Nc1ncnn2c(CN3CCOCC3)cc(-c3cc(F)c(NC(=O)Nc4cc(C(F)(F)F)ccn4)c(F)c3)c12` [Example 14, N-{4-[4-amino-7-(morpholin-4-ylmethyl)pyrrolo[2,1-f][1,2,4]triazin-5-yl]-2,6-difluorophenyl}-N′-[4-(trifluoromethyl)pyridin-2-yl]urea] gave an IC50 of less than 1000 nM.
